Test results from article PMC11199504, “New hemisynthetic derivatives of sphaeropsidin phytotoxins triggering severe endoplasmic reticulum swelling in cancer cells” (Scientific Reports, 2024).

Columns and labels:
[1] = test system: 60 cancer cell line panel; conditions: NCI database value; ref NCI database; read-out: LC50 (NCI); cited from earlier work
A549 = test: MTT colorimetric assay, A549; assay type: cell-based; conditions: Homo sapiens, 72 h treatment, mean ± SEM of six replicates of one experiment (1: 7, 13: 6 independent experiments), resistant to apoptosis, read-out: IC50 determined by MTT assays, A549
From the text: (§1) Cancer cell lines were obtained from either the European Collection of Cell Cultures (ECACC; Salisbury, UK) or the American Type Culture Collection (ATCC; Manassas, VA). The two glioma cell lines were the U373 (ECACC code 08061901) and Hs683 (ATCC HTB-138) cell lines. The carcinoma cell lines were the A549 non-small cell carcinoma cell line (ATCC code CCL 185) and the MCF-7 mammary breast carcinoma cell line (ATCC code HTB-22). The melanoma cell lines were the mouse B16F10 cells (ATCC code CRL-6475) and the human SKMEL-28 cells (ATCC code HTB-72). The ovarian cancer cell line A2780 and its cisplatin-resistant subline A2780cis were obtained from Sigma-Aldrich (St. Louis, MO, USA). Colon cancer HCT116 cells were obtained from ATCC (CCL-247) and the oxaliplatin-resistant subline HCT116/OxR established in the W. Berger lab[59]. The HeLa cell derivative KB-3-1 and the colchicine-selected, highly ABCB1-overexpressing subline KB-C-1 were generously donated by Dr. D. W. Shen, Bethesda, MD. RKOp53wt colon cancer cells together with the RKOp53KO (homozygous knock-out) subline[60] were generously provided by Dr. Vogelstein from John Hopkins University, Baltimore. The correct origin of all cell models was confirmed by STR during performance of the experiments. All cell lines were cultured in RPMI1640 culture medium supplemented with 10% heat-inactivated fetal bovine serum, 2% L-glutamine (0.6 mg/mL), 2% penicillin/streptomycin (200 IU/mL and 200 μg/mL) and 0.1 mg/mL gentamicin.
(§2) The MTT (3-(4,5-dimethylthiazol-2-yl)-2,5-diphenyl tetrazolium bromide) colorimetric assay has been conducted as described previously. Briefly, cells were seeded 24 h before their treatment with each compound for a period of 72 h. The concentrations tested ranged from 10 nM to 100 µM. Each assay was conducted in sextuplicates. The number of independent experiments is mentioned in the legend of the tables.

SKMEL-28 = test: MTT colorimetric assay, SKMEL-28; assay type: cell-based; conditions: Homo sapiens, SK-MEL-28; 72 h treatment; mean ± SEM; resistant to apoptosis; read-out: IC50 determined by MTT assays, SKMEL-28
From the text: as §1, §2

U373 = test: MTT colorimetric assay, U373; assay type: cell-based; conditions: Homo sapiens, U373 MG; 72 h treatment; mean ± SEM; resistant to apoptosis; read-out: IC50 determined by MTT assays, U373
From the text: as §1, §2

MCF7 = test: MTT colorimetric assay, MCF7; assay type: cell-based; conditions: Homo sapiens, 72 h treatment, mean ± SEM, sensitive to apoptosis, read-out: IC50 determined by MTT assays, MCF7
From the text: as §1, §2

Hs683 = test: MTT colorimetric assay, Hs683; assay type: cell-based; conditions: Homo sapiens, Hs 683; 72 h treatment; mean ± SEM; sensitive to apoptosis; read-out: IC50 determined by MTT assays, Hs683
From the text: as §1, §2

B16F10 = test: MTT colorimetric assay, B16F10; assay type: cell-based; conditions: Mus musculus, B16-F10; 72 h treatment; mean ± SEM; sensitive to apoptosis; read-out: IC50 determined by MTT assays, B16F10
From the text: as §1, §2

[2] = test system: A549, SKMEL-28, U373, MCF7, Hs683, B16F10; test: MTT colorimetric assay, mean of the six cell lines; assay type: cell-based; conditions: 72 h, mean over the six cell lines; 72 h treatment; read-out: IC50 determined by MTT assays, Mean
From the text: as §1, §2

[3] = test system: SKMEL-28 melanoma and U373 glioblastoma cells; test: Morphological evaluation by phase contrast microscopy / videomicroscopy; assay type: cell-based, human; conditions: videomicroscopy in SKMEL-28 cells
Experimental: For the morphological evaluation of the effects induced by compounds 1 and 13, 6 × 10^4 cells were seeded on glass coverslips placed in 6 well plates a minimum 24 h before their treatment. At the end of the incubation period with the treatment, coverslips were rinsed once in PBS buffer and directly mounted on slides to allow visualization of the cell with an Axio.Imager.M2 microscope (G X40 and G X100).

[4] = test system: SK-MEL-28 human melanoma and U373 glioblastoma cells; test: ER swelling / vacuole origin (CellLight ER-GFP, brightfield, TEM); assay type: cell-based; conditions: SK-MEL-28 and U373 cells
From the text: To decipher the origin of vacuoles, fluorescent probes staining different cellular compartments were used: the lysosomal Red DND-99 LysoTracker®, the glibenclamide Red ER tracker®, the green FM MitoTracker® that were all purchased from Lifes Technologies (Invitrogen, Belgium) and used according to manufacturer’s instructions. The CellLight ER-GFP (Thermofisher, Belgium) staining of the ER is based on the transfection of a plasmid coding for a fusion protein made of GFP fused to the ER signal sequence of calreticulin and the KDEL ER retention signal. Briefly, 6 × 10^4 cells were seeded on glass coverslips in 6 well plates. After a minimum of 24 h, cells were treated or not with the compounds of interest. Note that concentration and duration of the treatment were determined separately for each compound prior to the experiment on the basis of the apparition of marked morphological changes in phase contrast microscopy. Sixteen hours before the end of the experiment, 4 µL/well of the reagent were added to allow transfection and expression of the GFP-fused protein by the cells. Coverslips were then washed twice in PBS and mounted on slides without fixation step to take captions with the Axio.Imager.M2 microscope (Carl Zeiss, Belgium). To evaluate the cellular distribution of 13, the Axio.Imager.M2 was specifically equipped with an M340L4 excitation source (Thorlabs) and the pseudoconfocal Zeiss ZEN deconvolution system kindly provided for demo by Carl Zeiss (Belgium) to allow direct visualization of the compound 13 itself thanks to its intrinsic fluorescent properties.
For TEM, cells were fixed with glutaraldehyde 2.5% (EM grade, Electron Microscopy Sciences, EMS) at 4 °C overnight, washed tree times in cacodylate buffer (pH 7.4) and postfixed 1 h at room temperature in 1% OsO4, (EMS), 1.5% potassium ferrocyanide (Sigma-Aldrich) in 0.15 M cacodylate buffer. This was immediately followed by a second incubation in 1% OsO4 for 1 h at room temperature. After washing in distilled water, samples were stained with 1% uranyl acetate (EMS) and serially dehydrated in increasing ethanol concentrations. Samples were then embedded in epoxy resin (Agar 100 resin, Agar Scientific Ltd) and left to polymerize for 2 days at 60 °C. Ultrathin sections (50–70 nm thick) were collected with a Leica UC6 ultra-microtome on formvar-carbon-coated copper grids and further stained with uranyl acetate and lead citrate by standard procedures. Observations were made on a Tecnai 10 transmission electron microscope (FEI) and images were captured with a Veleta camera and processed with SIS iTEM software (Olympus).

A2780 = test: MTT assay, A2780 (parental sensitive); assay type: cell-based; conditions: 72 h treatment; ± standard deviation; parental sensitive model; read-out: IC50 determined by MTT assays, A2780
From the text: as §1, §2
(§3) SI Table 1: IC50 determined by MTT assays. Mean concentration (± standard deviation) in µM required to
(§4) reduce the viability of cells by 50% after a 72 h treatment relative to the control.
(§5) Parental sensitive models Drug-resistant models

RKO/P53wt = test: MTT assay, RKO/P53wt (parental sensitive); assay type: cell-based; conditions: 72 h treatment; ± standard deviation; parental sensitive model; read-out: IC50 determined by MTT assays, RKO/P53wt
From the text: as §1, §2, §3, §4, §5

A2780R = test: MTT assay, A2780R (cisplatin-resistant); assay type: cell-based; conditions: 72 h treatment; ± standard deviation; drug-resistant model; read-out: IC50 determined by MTT assays, A2780R
From the text: as §1, §2, §3, §4, §5

RKO/p53ko = test: MTT assay, RKO/p53ko; assay type: cell-based; conditions: 72 h treatment; ± standard deviation; drug-resistant model; read-out: IC50 determined by MTT assays, RKO/p53ko
From the text: as §1, §2, §3, §4, §5

KB-3-1 = test: MTT assay, KB-3-1 (parental sensitive); assay type: cell-based; conditions: Homo sapiens, KB 3-1, 72 h, read-out: IC50 determined by MTT assays, KB-3-1
From the text: as §1, §2, §3, §4, §5

KB-C-1 = test: MTT assay, KB-C-1 (ABCB1-overexpressing); assay type: cell-based; conditions: KBC-1, 72 h, read-out: IC50 determined by MTT assays, KB-C-1
From the text: as §1, §2, §3, §4, §5

Hct116 = test: MTT assay, Hct116 (parental sensitive); assay type: cell-based; conditions: 72 h treatment; ± standard deviation; parental sensitive model; read-out: IC50 determined by MTT assays, Hct116
From the text: as §1, §2, §3, §4, §5

Hct116/OxR = test: MTT assay, Hct116/OxR (oxaliplatin-resistant); assay type: cell-based; conditions: 72 h treatment; ± standard deviation; drug-resistant model; read-out: IC50 determined by MTT assays, Hct116/OxR
From the text: as §1, §2, §3, §4, §5

SMILES	CC50 [1] [nM]	IC50 (A549) [nM]	IC50 (SKMEL-28) [nM]	IC50 (U373) [nM]	IC50 (MCF7) [nM]	IC50 (Hs683) [nM]	IC50 (B16F10) [nM]	IC50 [2] [nM]	other results
CC(=O)N(C)c1ccc(Nc2cc(C)nc3ccc4[nH]cnc4c23)cc1 [Acodazole]	114000								
COc1cc(NS(C)(=O)=O)ccc1Nc1c2ccccc2nc2ccccc12 [Amsacrine]	25000								
CNC(=O)ON(C(C)=O)C(=O)NC [Caracemide]	625000								
C#CCCCC(=O)OC12OC(=O)C3(CCCC(C)(C)C13)C1(O)CCC(C)(C=C)C=C1C2=O (stereo not drawn) [Compound 3]		2400 ± 100	2560 ± 90	2370 ± 90	3720 ± 270	2830 ± 130	2600 ± 70	2750 ± 210	delay in the cellular shrinkage versus SphA 1 [3]: ≥ 24 h
C=CC1(C)C=C2C(=O)C3(OC(=O)c4ccccc4)OC(=O)C4(CCCC(C)(C)C34)C2(O)CC1 (stereo not drawn) [Compound 4]		1760 ± 290	2290 ± 170	2190 ± 70	1950 ± 140	2500 ± 120	1880 ± 100	2100 ± 110	delay in the cellular shrinkage versus SphA 1 [3]: ≥ 24 h
CC1(C=CCCc2ccc3ccc4cccc5ccc2c3c45)C=C2C(=O)C3(O)OC(=O)C4(CCCC(C)(C)C34)C2(O)CC1 (stereo not drawn) [Compound 24]		1200 ± 200	1300 ± 140	2200 ± 200	1200 ± 200	2400 ± 100	98 ± 40	1400 ± 340	
CC1(C=CCOCc2ccc3ccc4cccc5ccc2c3c45)C=C2C(=O)C3(O)OC(=O)C4(CCCC(C)(C)C34)C2(O)CC1 (stereo not drawn) [Compound 25]		3470 ± 3280	3320 ± 300	3930 ± 100	2710 ± 140	3320 ± 230	3280 ± 300	3340 ± 160	ER swelling / ER-derived vacuolization [4]: induction of ER-derived vacuolization
CC1(C=CCCOc2cccc3ccccc23)C=C2C(=O)C3(O)OC(=O)C4(CCCC(C)(C)C34)C2(O)CC1 (stereo not drawn) [Compound 26]		2050 ± 200	2460 ± 80	2840 ± 120	1300 ± 110	3100 ± 230	1080 ± 140	2140 ± 330	ER swelling / ER-derived vacuolization [4]: induction of ER-derived vacuolization
COc1ccc(C(=O)/C(Br)=C\C(=O)O)cc1 [Cytembena]	802000								
COc1ccc2c(c1)-c1nn(CCCN(C)C)c3ccc([N+](=O)[O-])c(c13)N2 [Pyrazolo acridine]	23300								
CC/C(=C(\c1ccccc1)c1ccc(OCCN(C)C)cc1)c1ccccc1 [Tamoxifen]	26000								
O=c1n(CC2CO2)c(=O)n(CC2CO2)c(=O)n1CC1CO1 (stereo not drawn) [Teroxirone]	387000								
N.N.[Cl][Pt][Cl] [cisplatin]									IC50 (A2780): 1800 ± 90 nM; IC50 (RKO/P53wt): 2000 ± 300 nM; IC50 (A2780R): > 10000 nM; IC50 (RKO/p53ko): 3700 ± 1200 nM
COc1cccc2c1C(=O)c1c(O)c3c(c(O)c1C2=O)C[C@@](O)(C(=O)CO)C[C@@H]3O[C@H]1C[C@H](N)[C@H](O)[C@H](C)O1 [doxorubicin]									IC50 (KB-3-1): 59 ± 30 nM; IC50 (KB-C-1): > 250000 nM
O=C1[O][Pt]2([NH][C@@H]3CCCC[C@H]3[NH]2)[O]C1=O [oxaliplatin]									IC50 (Hct116): 600 ± 80 nM; IC50 (Hct116/OxR): 22100 ± 2300 nM
